Literature values as cited in patent publication US11980627B2, “Triple pharmaceutical composition for proteinaceous infection” (priority 2019, dated 2024).

What was measured:
AD = details: in vivo
patients with AD = details: human, in vivo
AD patients = details: twelve months' treatment, alone or in combination
soluble amyloid protein = details: intravenous
Sequence of soluble amyloid protein (P05067 672-711 limits assumed): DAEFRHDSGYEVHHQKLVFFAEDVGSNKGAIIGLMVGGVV

Compound: CC(=O)Nc1ccc(O)cc1 [Acetaminophen]
- effects on AD (AD): not found to have beneficial effects

Compound: COc1ccc2cc([C@H](C)C(=O)O)ccc2c1 [Naproxen]
- cognitive function in patients with AD (patients with AD): did not improve

Compound: CC(=O)Oc1ccccc1C(=O)O [aspirin]
- effects on AD (AD): not found to have beneficial effects

Compound: CO[C@H]1/C=C/O[C@@]2(C)Oc3c(C)c(O)c4c(O)c(c(/C=N/N5CCN(C)CC5)c(O)c4c3C2=O)NC(=O)/C(C)=C\C=C\[C@H](C)[C@H](O)[C@@H](C)[C@@H](O)[C@@H](C)[C@H](OC(C)=O)[C@@H]1C [rifampin]
- effects on cognition or function in AD (AD patients): no beneficial effects

Compound: Solanezumab: intravenous amyloid immunotherapy; humanized monoclonal antibody to soluble amyloid protein
- outcome of amyloid immunotherapy in AD (soluble amyloid protein): failure
